Values of other authors as cited in patent publication EP3251687A1, “BIOACTIVE PEPTIDES FOR BLOOD GLUCOSE CONTROL” (Centrum Innowacji Edoradca Sp. z o.o. Spolka Komandytowa, priority 2016, dated 2017).

System: carboxypeptidases A, B

enterostatin
resistance to digestion by carboxypeptidases A, B: resistant to digestion by carboxypeptidases A, B
